# Test results: US20100234393A1, “USE OF A VASOPEPTIDASE INHIBITOR FOR THE TREATMENT OF PULMONARY ARTERIAL HYPERTENSION” (priority 2006, published 2010)
# Columns and labels:
# [1] = tested on: PAH model in rats receiving an injection of monocrotaline; assay: Long-term efficacy of fasidotril in the monocrotaline PAH model in rats; assay type: in vivo, rats of the Wistar type
# Procedure: The long-term efficacy of fasidotril was studied on a recognised PAH model in rats receiving an injection of the toxic alkaloid, monocrotaline (Rosenberg and Rabinovitch, Am. J. Physiol., 1988, 255, 484). After a single injection of the toxin (60 mg/kg, s.c.), the pulmonary arterial endothelium is wounded and the animals develop pulmonary arterial smooth muscle hypertrophy with severe pulmonary hypertension and right ventricular hypertrophy.
# A group of 50 rats of the Wistar type weighing approximately 300 g was used, of which 10 were used as controls while 40 received a dose of 60 mg/kg of monocrotaline s.c. The latter were divided into two groups of 20 animals: the first group was fed with a standard laboratory feed while the second group was fed with a feed containing fasidotril at a concentration such that the rats received a dose of approximately 200 mg/kg/day.
# [2] = tested on: PAH model (monocrotaline, Wistar rats); conditions: literature: Schermuly et al., Amer. J. Resp. Crit. Care Med. 2004, 169, 39; cited from earlier work
SMILES,"slowing down of the rate of development of the disease ([1]; PAH model, treatment with fasidotril, conclusion from mortality and heart weight data)","mortality ([1]; after one month, monocrotaline 60 mg/kg s.c., fasidotril in feed approximately 200 mg/kg/day, ""monocrotaline only"" group 45%)","increase in the weight of the right ventricle (right heart hypertrophy) ([1]; after one month, monocrotaline 60 mg/kg s.c., fasidotril in feed approximately 200 mg/kg/day, monocrotaline only +74%)","increase in the weight of the right auricle (right heart hypertrophy) ([1]; after one month, monocrotaline 60 mg/kg s.c., fasidotril in feed approximately 200 mg/kg/day, monocrotaline only +140%)",activity in the PAH model [2]
"CC(=O)SC[C@@H](Cc1ccc2c(c1)OCO2)C(=O)N[C@@H](C)C(=O)OCc1ccccc1 [fasidotril, benzyl (S,S)-2-(2-acetylsulphanylmethyl-3-benzo[1,3]dioxol-5-ylpropionylamino)propionate]",approximately a half,20%,+50%,+57%,–
CCCc1nn(C)c2c(=O)[nH]c(-c3cc(S(=O)(=O)N4CCN(C)CC4)ccc3OCC)nc12 [sildenafil],–,–,–,–,active
